# Tested on: single-round infectious HIV-1 reporter virus
# Experiment: microbe, parasite or virus in culture
# Format: cell-based
# Conditions: for EC50: Human immunodeficiency virus 1, HeLa-CD4/CCR5; for inhibition at 10 µM: Human immunodeficiency virus 1, HeLa-CD4/CCR5, 72 h, read-out: Average % inhibition at or <10 μM; for Average % inhibition at or <10 μM: HeLa CD4 CCR5 cells, luciferase expression 3 days (72 hours) after infection, compounds tested below 10 μM: % inhibition at 10 μM extrapolated with XLfit, mean of at least two experiments
Structure (SMILES),EC50 [nM],inhibition at 10 µM [%],Average % inhibition at or <10 μM [%]
"C[C@@H]1CN(C(=O)c2ccccc2)[C@@H](C)CN1C(=O)C(=O)c1c[nH]c2ncccc12 (relative stereo) [Compound 5i, trans-N-(benzoyl)-2,5-dimethyl-N′-[(7-azaindol-3-yl)-oxoacetyl]-piperazine]",< 1000,89,
"C[C@@H]1CN(C(=O)c2ccccc2)CCN1C(=O)C(=O)c1c[nH]c2ncccc12 [Compound 5a, (R)-N-(benzoyl)-3-methyl-N′-[(7-azaindol-3-yl)-oxoacetyl]-piperazine]",< 1000,> 99,
"CC(C)C1CN(C(=O)c2ccccc2)CCN1C(=O)C(=O)c1c[nH]c2ncccc12 (stereo not shown) [Compound 5ab, N-(benzoyl)-3-iso-Propyl-N′-[(7-azaindol-3-yl)-oxoacetyl]-piperazine]",> 500,,
"CC(C)C1CN(C(=O)C(=O)c2c[nH]c3ncccc23)CCN1C(=O)c1ccccc1 (stereo not shown) [Compound 5ac, N-(benzoyl)-2-iso-Propyl-N′-[(7-azaindol-3-yl)-oxoacetyl]-piperazine]",> 400,,
"CC(C)C1CN(C(=O)c2c[nH]c3ncccc23)CCN1C(=O)c1ccccc1 (stereo not shown) [Compound 5ad, N-(benzoyl)-2-iso-Propyl-N′-[(7-azaindol-3-yl)-carbonyl]-piperazine]",> 500,,
"C[C@@H]1CN(C(=O)c2ccccc2)CCN1C(=O)C(=O)c1c[nH]c2nccc(O)c12 [Compound 5ah, (R)-N-(benzoyl)-3-methyl-N′-[(4-hydroxyl-7-azaindol-3-yl)-oxoacetyl]-piperazine]",> 5000,,
"CC1CN(C(=O)c2ccccc2)CCN1C(=O)C(=O)c1c[nH]c2ncccc12 (stereo not shown) [Compound 5ai, N-(benzoyl)-3-methyl-N′-[(7-azaindol-3-yl)-oxoacetyl]-piperazine]",< 1000,,
"Cc1cc(Cl)nc2c(C(=O)C(=O)N3CCN(C(=O)c4ccccc4)C[C@H]3C)c[nH]c12 [Compound 5ak, (R)-N-(benzoyl)-3-Methyl-N′-[(5-Chloro-7-methyl-4-azaindol-3-yl)-oxoacetyl]-piperazine]",< 1000,,
"COc1cnc(Cl)c2[nH]cc(C(=O)C(=O)N3CCN(C(=O)c4ccccc4)CC3)c12 [Compound 5an, N-(benzoyl)-N′-[(7-chloro-4-methoxy-6-azaindol-3-yl)-oxoacetyl]piperazine]",< 1000,,
"COc1ncc(OC)c2c(C(=O)C(=O)N3CCN(C(=O)c4ccccc4)CC3)c[nH]c12 [Compound 5ao, N-(benzoyl)-N′-[(4,7-dimethoxy-6-azaindol-3-yl)-oxoacetyl]piperazine]",< 1000,,
"COc1ncc(OC)c2c(C(=O)C(=O)N3CCN(C(=O)c4ccccc4)C[C@H]3C)c[nH]c12 [Compound 5ap, ®-N-(benzoyl)-3-methyl-N′-[(4,7-dimethoxy-6-azaindol-3-yl)-oxoacetyl]piperazine]",< 1000,,
"CCC1CN(C(=O)C(=O)c2c[nH]c3ncccc23)CCN1C(=O)c1ccccc1 (stereo not shown) [Compound 5b, N-(benzoyl)-2-ethyl-N′-[(7-azaindol-3-yl)-oxoacetyl]-piperazine]",< 1000,90,
"CCC1CN(C(=O)c2c[nH]c3ncccc23)CCN1C(=O)c1ccccc1 (stereo not shown) [Compound 5c, N-(benzoyl)-2-ethyl-N′-[(7-azaindol-3-yl)-carbonyl]-piperazine]",< 1000,80,
"O=C(C(=O)N1CCN(C(=O)c2ccccc2)CC1)c1c[nH]c2ncccc12 [Compound 5d, N-(benzoyl)-N′-[(7-azaindol-3-yl)-oxoacetyl]-piperazine]",< 1000,98,
"CC1CN(C(=O)C(=O)c2c[nH]c3ncccc23)CCN1C(=O)c1ccccc1 (stereo not shown) [Compound 5e, N-(benzoyl)-2-methyl-N′-[(7-azaindol-3-yl)-oxoacetyl]-piperazine]",< 1000,80,
"C[C@H]1CN(C(=O)c2ccccc2)CCN1C(=O)C(=O)c1c[nH]c2ncccc12 [Compound 5f, (S)-N-(benzoyl)-3-methyl-N′-[(7-azaindol-3-yl)-oxoacetyl]-piperazine]",< 1000,80,
"CCC1CN(C(=O)c2ccccc2)CCN1C(=O)C(=O)c1c[nH]c2ncccc12 (stereo not shown) [Compound 5g, N-(benzoyl)-3-ethyl-N′-[(7-azaindol-3-yl)-oxoacetyl]-piperazine]",< 1000,70,
"CC1(C)CN(C(=O)c2ccccc2)CCN1C(=O)C(=O)c1c[nH]c2ncccc12 [Compound 5h, N-(benzoyl)-3,3-dimethyl-N′-[(7-azaindol-3-yl)-oxoacetyl]-piperazine]",1000 to 5000,80,
"C[C@@H]1CN(c2ccccn2)CCN1C(=O)C(=O)c1c[nH]c2ncccc12 [Compound 5k, (R)-N-(pyridin-2-yl)-3-methyl/N′-[(7-azaindol-3-yl)-oxoacetyl]-piperazine]",,,>99

Structure (SMILES),EC50 [nM],inhibition at 10 µM [%],Average % inhibition at or <10 μM [%]
"C[C@@H]1CN(c2ccc(Br)o2)CCN1C(=O)C(=O)c1c[nH]c2ncccc12 [Compound 5l, (R)-N-(5-bromo-furan-2-yl)-3-methyl-N′-[(7-azaindol-3-yl)-oxoacetyl]-piperazine]",< 1000,> 99,
"C[C@@H]1CN(C(=O)c2ccccc2)CCN1C(=O)C(=O)c1c[nH]c2ccncc12 [Compound 5m, (R)-N-(benzoyl)-3-methyl-N′-[(5-azaindol-3-yl)-oxoacetyl]-piperazine]",> 500,60,
"COc1ccnc2[nH]cc(C(=O)C(=O)N3CCN(C(=O)c4c(F)c(F)c(N=[N+]=[N-])c(F)c4F)C[C@H]3C)c12 [Compound 5n, (R)-N-(4-azido-2,3,5,6-tetra-fluorobenzoyl)-3-methyl-N′-[(4-methoxy-7-azaindol-3-yl)-oxoacetyl]-piperazine]",< 1000,93,
"O=C(C(=O)N1CCN(C(=O)c2ccccc2)CC1)c1c[nH]c2cnccc12 [Compound 5p, N-(benzoyl)-N′-[(6-azaindol-3-yl)-oxoacetyl]-piperazine]",> 500,40,
"CC1CN(C(=O)c2ccccc2)CCN1C(=O)C(=O)c1c[nH]c2cnccc12 (stereo not shown) [Compound 5q, N-(benzoyl)-3-Methyl-N′[(6-azaindol-3-yl)-oxoacetyl]-piperazine]",< 1000,97,
"C[C@@H]1CN(C(=O)c2ccccc2)CCN1C(=O)C(=O)c1c[nH]c2cnccc12 [Compound 5r, (R)-N-(benzoyl)-3-Methyl-N′-[(6-azaindol-3-yl)-oxoacetyl]-piperazine]",< 1000,> 99,
"C[C@H]1CN(C(=O)c2ccccc2)CCN1C(=O)C(=O)c1c[nH]c2cnccc12 [Compound 5s, (S)-N-(benzoyl)-3-Methyl-N′-[(6-azaindol-3-yl)-oxoacetyl]-piperazine]",> 500,56,
"O=C(C(=O)N1CCN(C(=O)c2ccccc2)CC1)c1c[nH]c2c(Cl)nccc12 [Compound 5t, N-(benzoyl)-N′-[(7-Chloro-6-azaindol-3-yl)-oxoacetyl]-piperazine]",< 1000,> 99,
"C[C@@H]1CN(C(=O)c2ccccc2)CCN1C(=O)C(=O)c1c[nH]c2c(Cl)nccc12 [Compound 5u, (R)-N-(benzoyl)-3-Methyl-N′-[(7-Chloro-6-azaindol-3-yl)-oxoacetyl]-piperazine]",< 1000,99,
"COc1nccc2c(C(=O)C(=O)N3CCN(C(=O)c4ccccc4)C[C@H]3C)c[nH]c12 [Compound 5v, (R)-N-(benzoyl)-3-Methyl-N′-[(7-Methoxy-6-azaindol-3-yl)-oxoacetyl]-piperazine]",< 1000,> 99,
"C[C@@H]1CN(C(=O)c2ccccc2)CCN1C(=O)C(=O)c1c[nH]c2cccnc12 [Compound 5w, (R)-N-(benzoyl)-3-Methyl-N′-[(4-azaindol-3-yl)-oxoacetyl]-piperazine]",< 1000,98,
"Cc1ccnc2c(C(=O)C(=O)N3CCN(C(=O)c4ccccc4)C[C@H]3C)c[nH]c12 [Compound 5x, (R)-N-(benzoyl)-3-Methyl-N′-[(7-Methyl-4-azaindol-3-yl)-oxoacetyl]-piperazine]",< 1000,99,
"C[C@@H]1CN(C(=O)c2ccccc2)CCN1C(=O)C(=O)c1c[nH]c2c(Cl)ccnc12 [Compound 5y, (R)-N-(benzoyl)-3-Methyl-N′-[(7-Chloro-4-azaindol-3-yl)-oxoacetyl]-piperazine]",< 1000,> 99,
"COc1ccnc2c(C(=O)C(=O)N3CCN(C(=O)c4ccccc4)C[C@H]3C)cn(C)c12 [Compound 5z, (R)-N-(benzoyl)-3-Methyl-N′-[(7-Methoxy-1-methyl-4-azaindol-3-yl)-oxoacetyl]-piperazine]",< 1000,97,
"C[C@@H]1CN(C(=O)c2ccccc2)CCN1C(=O)C(=O)c1c[nH]c2c1ccc[n+]2[O-] [Compound 8a, (R)-N-(benzoyl)-3-methyl-N′-[(7-oxide-7-azaindol-3-yl)-oxoacetyl]-piperazine]",,,90
"C[C@@H]1CN(C(=O)c2ccccc2)CCN1C(=O)C(=O)c1c[nH]c2c[n+]([O-])ccc12 [Compound 8b, (R)-N-(benzoyl)-3-methyl-N′-[(6-oxide-6-azaindol-3-yl)-oxoacetyl]-piperazine]",,,91
"C[C@@H]1CN(C(=O)c2ccccc2)CCN1C(=O)C(=O)c1c[nH]c2nccc(Cl)c12 [Compound 9a, (R)-N-(benzoyl)-3-methyl-N′-[(4-chloro-7-azaindol-3-yl)-oxoacetyl]-piperazine]",< 1000,> 99,
"C[C@@H]1CN(C(=O)c2ccccc2)CCN1C(=O)C(=O)c1c[nH]c2nc(Cl)ccc12 [Compound 9b, (R)-N-(benzoyl)-3-methyl-N′-[(6-chloro-7-azaindol-3-yl)-oxoacetyl]-piperazine]",< 1000,> 99,
"C[C@@H]1CN(C(=O)c2ccccc2)CCN1C(=O)C(=O)c1c[nH]c2nc(F)cc([N+](=O)[O-])c12 [Compound 10a, (R)-N-(benzoyl)-3-methyl-N′-[(4-nitro-6-fluoro-7-azaindol-3-yl)-oxoacetyl]-piperazine]",< 1000,> 99,

# Reference: patent publication US6476034B2, “Antiviral azaindole derivatives” (priority 2000, dated 2002)
